# Test results: patent US6555538B2, “5-arylsulfonyl-imidazo[1′,2′:1,6]pyrido[2,3-b]pyrazine-6-amines and related compounds” (Pfizer Inc, priority 1999, dated 2003)
row,Compound,melting point [°C]
1,"CC(C)c1ccc(S(=O)(=O)c2c(N)c3nccn3c3nccnc23)cc1 [Example 4, 5-[(4-isopropylphenyl)sulfonyl]-imidazo[1′,2′:1,6]pyrido[2,3-b]pyrazin-6-amine]",241 to 244
2,"CCCc1ccc(S(=O)(=O)c2c(N)c3nccn3c3nccnc23)cc1 [Example 5, 5-[(4-propylphenyl)sulfonyl]-imidazo[1′,2′:1,6]pyrido[2,3-b]pyrazin-6-amine]",231 to 232
3,"Cc1ccc(S(=O)(=O)c2c(N)c3nccn3c3nccnc23)cc1 [Example 1, 5-[(4-Methylphenyl)sulfonyl]-imidazo[1′,2′:1,6]pyrido[2,3-b]pyrazin-6-amine]",294 to 295
4,"Cc1ccc(S(=O)(=O)c2c(N)c3nncn3c3nccnc23)cc1 [Example 2, 5-[(4-methylphenyl)sulfonyl]-[1,2,4]triazolo[4′,3′:1,6]pyrido[2,3-b]pyrazin-6-amine]",> 300
5,"COc1ccc(S(=O)(=O)c2c(N)c3nccn3c3nccnc23)cc1 [Example 6, 5-[(4-methoxyphenyl)sulfonyl]-imidazo[1′,2′:1,6]pyrido[2,3-b]pyrazin-6-amine]",269 to 270
6,"Nc1c(S(=O)(=O)c2ccc(O)cc2)c2nccnc2n2ccnc12 [Example 8, 5-[(4-Hydroxyphenyl)sulfonyl]-imidazo[1′,2′:1,6]pyrido[2,3-b]pyrazin-6-amine]",> 300
7,"CCc1ccc(S(=O)(=O)c2c(N)c3nccn3c3nccnc23)cc1 [Example 3, 5-[(4-ethylphenyl)sulfonyl]-imidazo[1′,2′:1,6]pyrido[2,3-b]pyrazin-6-amine]",267.5 to 268.5
